Numbers after ± are expanded uncertainties.
Test: mn = molality of the nth substance listed, in mol/kg
Conditions: 298.15 K, 101 kPa, Liquid, Vibrating tube method

- mass density (m2 = 0.003931): 1316.39 ± 10 kg/m3
- mass density (m2 = 0.1352): 1316.68 ± 10 kg/m3
SMILES: ClCCl [dichloromethane] + CCOS(=O)(=O)[O-].CCn1cc[n+](C)c1

From the NIST ThermoML archive (doi:10.1021/je101130e)
